Assays:
[1] = system: Radical scavenging activity; assay: Antioxidant activity assessed as residual DPPH radical scavenging activity after 45 mins by spectrophotometrically; assay type: functional
[2] = Antioxidant activity assessed as trolox equivalents of ABTS radical scavenging activity by TEAC assay; assay type: functional

SMILES | IC50 [1] [µM] | Activity [2] [mmol]
COc1cc(/C=C/C(=O)O)cc(OC)c1O [SINAPINATE] | 66 | 1.14
O=C(O)/C=C/c1ccc(O)cc1 [COUMARIC ACID] | > 100 | 
CCCCCCCCCCCCCCCCCCOC(=O)/C=C/c1cc(OC)c(O)c(OC)c1 | 77.1 | 1.16
CCCCCCCCCCCCCCCCCCOC(=O)/C=C/c1ccc(O)c(OC)c1 | 117 | 1.8
CCCCCCCCCCCCCCOC(=O)/C=C/c1ccc(O)c(OC)c1 | 110 | 1.66
COc1cc(/C=C/C(=O)O)ccc1O [FERULATE] | 112 | 1.76
CCCCCCCCCCCCCCOC(=O)/C=C/c1ccc(O)cc1 | > 100 | 
CCCCCCCCCCCCCCOC(=O)/C=C/c1cc(OC)c(O)c(OC)c1 | 77.2 | 1.18

Stronger by IC50 [1], values ahead:

IC50 [1] [µM] | SMILES | Activity [2] [mmol]
38 | CCCCCCCCCCCCCCCCCCOC(=O)/C=C/c1ccc(O)c(O)c1 | 1.02
34.1 | O=C(O)/C=C/c1ccc(O)c(O)c1 [CAFFEIC ACID] | 0.95
33 | CCCCCCCCCCCCCCCCOC(=O)/C=C/c1ccc(O)c(O)c1 | 0.96
31.9 | CCCCCCCCCCCCCCOC(=O)/C=C/c1ccc(O)c(O)c1 | 0.98

Source: ChEMBL document CHEMBL1667790, “Synthesis and antioxidant activity of long chain alkyl hydroxycinnamates” (Eur J Med Chem, 2011)
